Measurements from patent publication US4935419A, “Novel 1-piperazinecarboxamide derivatives” (priority 1983, dated 1990).
Counter-ions that a name gives are not always drawn. Like-named read-outs stand apart in the source and are kept apart here.

Assays:
[1] = system: male NMRI mice (isolation induced aggressive behaviour); assay: Isolation induced aggressive behaviour test; format: in vivo; details: Mus musculus, sc, read-out: ED50, isolation induced aggressive behaviour test
From the text: Test 1: Isolation induced aggressive behaviour test
Male mice subjected to prolonged isolation develop aggressive behaviour against each other when paired (Yen, C. Y. et al., Arch. Int. Pharmacodyn. 123, 179, (1959): Valzelli, L., Adv. Pharmacol. 5, 79 (1967)). […] The clinical correlation of this test indicates tranquillizing and anxiolytic activities as well as antiaggressive properties as such (Duncan, R. L. et al., J Med. Chem. 13, 1 (1970)).
This type of aggression is interesting because it is known that this kind of emotional behaviour might be located in limbic structures in the brain (MacLean, P.D., Psychosom. Med. 11, 338 (1949)).
Every week male NMRI mice, weighing 20-22 g, were isolated in Makrolon cages for three weeks with diet and water ad libitum. A piece of cardboard was placed between the cages to prevent visual contact.
To test aggressiveness the mice were paired in a neutral area, a beaker (14 cm high and diameter 14 cm). A pair is considered aggressive if both the animals show clear signs of fighting within 5 minutes. This fighting is characterized by biting and vocalization. […] Animals showing no aggression are discarded. […] The test substance is administered s.c. (0.2-0.4 ml/20 g). The mice are paired 0.5 hour after the injection for trials of 5 minutes duration.
The ED50 -value (mg/kg) reported is the dose inhibiting aggressive behaviour among 50 per cent of the pairs 0.5 hour after drug administration.

[2] = system: female rats (conditioned avoidance response); assay: Conditioned avoidance response (CAR); format: in vivo; details: Rattus norvegicus, sc, 1.5 h, read-out: ED50, conditioned avoidance response
Description: Test 2: Conditioned avoidance response (CAR)
The effect of the test compounds on CAR was evaluated in a shuttle box, manufactured by Ugo Basile, Italy. The female rats, weighing 150 g, were trained to avoid an electric shock (unconditioned stimulus--US) by escaping from one compartment to the other when the light from a 15W lamp is switched on (conditioned stimulus--CS). When they responded to the CS, a conditioned response (CR) was considered to have been elicited. Rats showing a stable CR of more than 80% after a three weeks' training program were used in the experiments. Groups of six rats were subcutaneously administered with various doses of the test compounds. 11/2 hours after the administration each rat was placed in the experimental box and the effect on CR was evaluated. ED50 -values refer to the dose inhibiting CR in 50% of the animals. The mechanisms regulating conditioned responses are very complex. Both catecholaminergic and hormonal factors are of importance.

[3] = system: female NMRI mice (writhing behaviour); assay: Writhing test (acetic acid); format: in vivo; details: Mus musculus, sc, 20 minutes before acetic acid (0.5%, 15 ml/kg i.p.), dose blocking writhing in 50% of the animals
Description: The writhing test is a frequently used test of analgetic properties (Witkin, L. B. et al., J. Pharmacol. Exp. Ther. 133, 400 (1961)). If acetic acid (0.5%, 15 ml/kg) is injected intraperitoneally in mice (NMRI) they will without exception develop a writhing behaviour characterized by stretching their hind legs. The drugs to be tested were administered subcutaneously to 6 female mice at each dose 20 minutes before the injection of the acetic acid. After 10 minutes the behaviour of the mice was studied in 5 minutes. The ED50 -value is the dose blocking the writhing behaviour in 50% of the animals during the 5 minutes study period. [drawing 12]

[4] = system: male NMRI mice (isolation induced aggressive behaviour); details: result in words; clinically used drugs; cited from earlier work
[5] = mice, dose inhibiting aggressive behaviour among 50 per cent of the pairs 0.5 hour after administration
[6] = s.c., rats, dose inhibiting CR in 50% of the animals, 1 1/2 hours after administration

## CCNC(=O)N1CCN(CCCC(=O)c2ccc(F)cc2)CC1 [1:3, 4-.vertline.4-(p-fluorophenyl)-4-oxobutyl.vertline.-N-ethyl-1-piperazinecarboxamide hydrochloride]
[1]; [5]
  ED50: 1.7 mg/kg
[2]; [6]
  ED50: 12 mg/kg
[3]
  ED50: 1.9 mg/kg

## CCNC(=O)N1CCN(CCCCc2ccc(F)cc2)CC1 [1:15, 4-.vertline.4-(p-fluorophenyl)butyl.vertline.-N-ethyl-1-piperazinecarboxamide hydrochloride]
[1]; [5]
  ED50: 3.5 mg/kg
[2]; [6]
  ED50: 7.9 mg/kg
[3]
  ED50: 3.7 mg/kg

## CN(C)CCC=C1c2ccccc2CCc2ccccc21 [Amitriptyline]
[1]; [5]
  ED50: 5 mg/kg

## CN(C)CCCN1c2ccccc2Sc2ccc(Cl)cc21 [Chlorpromazine]
[1]; 0.5 h
  ED50: 1.4 mg/kg
[2]
  ED50: 3.5 mg/kg

## CN1C(=O)CN=C(c2ccccc2)c2cc(Cl)ccc21 [Diazepam]
[4]
  activity on isolation induced aggressive behaviour, known drugs: active on this kind of aggressive behaviour

## CSc1ccc2c(c1)N(CCC1CCCCN1C)c1ccccc1S2 (stereo not drawn) [Thioridazine]
[1]; [5]
  ED50: 5 mg/kg
[2]; [6]
  ED50: 41 mg/kg
